Measurements published in the NIST ThermoML archive (doi:10.1016/j.jct.2015.08.033).

Assay: mn = molality of the nth substance listed, in mol/kg
Conditions: 100 kPa, Liquid; for speed of sound: Frequency=3 MHz, Sing-around technique in a fixed-path interferometer; for mass density: Vibrating tube method

O=S(=O)([O-])C(F)(F)F.O=S(=O)([O-])C(F)(F)F.[Sr+2] [strontium trifluoromethanesulfonate] + CN(C)C=O
Conditions	mass density, 298.15 K [kg/m3]	mass density, 303.15 K [kg/m3]	mass density, 308.15 K [kg/m3]	mass density, 313.15 K [kg/m3]	mass density, 318.15 K [kg/m3]	speed of sound, 298.15 K [m/s]	speed of sound, 303.15 K [m/s]	speed of sound, 308.15 K [m/s]	speed of sound, 313.15 K [m/s]	speed of sound, 318.15 K [m/s]
m1 = 0.01062	946.522	941.756	936.972	932.186	927.378	1457.2	1438	1418.7	1399.5	1380.3
m1 = 0.01763	948.231	943.466	938.685	933.888	929.08	1457.2	1438	1418.7	1399.6	1380.4
m1 = 0.02656	950.395	945.626	940.844	936.049	931.241	1457.1	1438	1418.7	1399.6	1380.5
m1 = 0.03847	953.244	948.482	943.704	938.91	934.105	1457	1437.9	1418.7	1399.6	1380.6
m1 = 0.04908	955.781	951.013	946.233	941.439	936.634	1456.8	1437.8	1418.6	1399.6	1380.6
m1 = 0.06765	960.189	955.42	950.641	945.845	941.04	1456.5	1437.6	1418.5	1399.5	1380.7
m1 = 0.08503	964.269	959.5	954.718	949.923	945.118	1456.2	1437.3	1418.3	1399.5	1380.6
m1 = 0.1067	969.35	964.567	959.781	954.985	950.18	1456.1	1437.1	1418.2	1399.3	1380.6
m1 = 0.1286	974.403	969.629	964.845	960.047	955.242	1455.4	1436.7	1417.9	1399.1	1380.5
m1 = 0.1612	981.851	977.074	972.285	967.485	962.676	1454.7	1436.1	1417.4	1398.8	1380.2
